Experimental findings from patent publication US20260297060A1, “COMPOUNDS FOR THE DEGRADATION OF MUTANT BRAF” (C4 THERAPEUTICS, INC., priority 2023, published 2026) are described below.

Molecules are shown by their SMILES.

T1 sequence (O95342 whole entry): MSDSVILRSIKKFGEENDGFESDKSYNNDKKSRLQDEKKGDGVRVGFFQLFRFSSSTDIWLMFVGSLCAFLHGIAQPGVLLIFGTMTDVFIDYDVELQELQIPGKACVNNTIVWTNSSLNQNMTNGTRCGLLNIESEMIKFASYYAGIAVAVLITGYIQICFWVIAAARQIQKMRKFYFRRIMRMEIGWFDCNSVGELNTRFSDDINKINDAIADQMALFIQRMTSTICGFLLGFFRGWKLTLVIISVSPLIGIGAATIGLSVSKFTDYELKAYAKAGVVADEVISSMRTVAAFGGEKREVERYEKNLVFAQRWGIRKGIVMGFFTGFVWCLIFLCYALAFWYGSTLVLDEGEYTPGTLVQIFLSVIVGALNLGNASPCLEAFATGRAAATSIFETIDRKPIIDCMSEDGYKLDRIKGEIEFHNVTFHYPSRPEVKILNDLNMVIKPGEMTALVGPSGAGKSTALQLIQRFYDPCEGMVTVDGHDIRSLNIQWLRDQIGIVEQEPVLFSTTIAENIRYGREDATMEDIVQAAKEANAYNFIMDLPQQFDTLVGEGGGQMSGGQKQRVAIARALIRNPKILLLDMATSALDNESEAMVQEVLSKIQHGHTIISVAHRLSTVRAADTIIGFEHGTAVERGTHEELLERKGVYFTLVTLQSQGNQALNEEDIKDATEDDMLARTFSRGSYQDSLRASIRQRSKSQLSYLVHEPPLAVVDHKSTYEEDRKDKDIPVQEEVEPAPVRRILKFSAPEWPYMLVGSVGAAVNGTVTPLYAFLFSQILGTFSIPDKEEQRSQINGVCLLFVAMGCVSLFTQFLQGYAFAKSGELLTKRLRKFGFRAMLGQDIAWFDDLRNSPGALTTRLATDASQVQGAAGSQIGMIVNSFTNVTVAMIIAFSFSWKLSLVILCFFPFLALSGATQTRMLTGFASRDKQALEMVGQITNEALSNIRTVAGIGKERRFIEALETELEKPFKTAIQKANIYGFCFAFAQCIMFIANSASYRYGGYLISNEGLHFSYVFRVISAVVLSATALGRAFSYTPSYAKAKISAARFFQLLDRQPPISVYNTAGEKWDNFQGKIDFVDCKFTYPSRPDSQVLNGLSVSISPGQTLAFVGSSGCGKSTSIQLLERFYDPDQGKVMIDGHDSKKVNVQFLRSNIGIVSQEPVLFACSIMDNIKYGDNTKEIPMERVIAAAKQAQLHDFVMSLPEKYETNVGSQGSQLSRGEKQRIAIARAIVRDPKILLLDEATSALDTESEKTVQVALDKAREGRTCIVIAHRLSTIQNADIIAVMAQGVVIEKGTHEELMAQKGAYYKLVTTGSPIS

One assay concerns the target T1, human bile salt export pump (BSEP) efflux transporter (Homo sapiens, UniProt O95342).
T1 construct: purchased SOLVO Biotechnology Charles River Laboratories, Szeged, Hungary; host or cells: HEK293 (inside out membrane vesicles)
In words: BSEP Vesicular Transport Inhibition Assay (IC50 determination). Format: biochemical. To be noted: human BSEP (HEK293) vesicles; taurocholate 0.2 μM; 4 mM Mg-ATP; 10 concentrations, 1 replicate. As for the experimental part: The vesicular transport (VT) assays were performed using inside out membrane vesicles derived from HEK293 cells expressing the specified human bile salt export pump (BSEP) efflux transporter. The membrane vesicles were procured from SOLVO Biotechnology Charles River Laboratories, Szeged, Hungary.
The principle of the assay relies on measuring the accumulation of substrate into inside out vesicles containing the efflux transporter. By utilizing inside out vesicles, the ATP-dependent transport of substrate is directed into the vesicular lumen, where low permeability compounds are then essentially trapped.
For the IC50 screen inhibition assay, 10 concentrations of each compound were tested in the presence of ATP (active transport) in 1 replicate.
The solvent control (DMSO) was tested in the presence of ATP (active transport) and in the presence of AMP (background) in 8 replicates.
Vesicular transport inhibition assays were performed using the specific parameters for each transporter inhibition assay described in Table 53.
Table 54 specifies treatment groups and concentration of compounds, that were examined in the vesicular transport inhibition assay. Detailed data of IC50 screen inhibition assay are shown in Table 55 and detailed data of 1 concentration inhibition assay are shown in Table 56.
The vesicular transport inhibition assay was performed with 4 mM Mg-ATP. For the IC50 screen inhibition assay, 10 concentrations of each compound were tested in the presence of ATP in 1 replicate. For the 1 concentration inhibition assay, 1 concentration of each compound was tested in the presence of ATP (active transport) in 2 replicates. The solvent control (DMSO) was tested in the presence of 4 mM Mg-ATP (active transport) and in the presence of 4 mM AMP (background) in 8 replicates.
The BSEP membrane vesicle suspension was mixed with the ice-cold transport buffer, then the taurocholate probe substrate solution was added (Reaction mixture, 50 μL per well). The compounds were added to the reaction mixture at 1.5-times the final assay concentration. […].
Reaction mixtures and the start reagent (Mg-ATP or AMP in transport buffer) were pre-warmed separately for 15 minutes to reach the incubation temperature of 37° C. […]
The reaction was initiated by the addition of the start reagent (25 μL) to the reaction mixture (diluting the reaction mixture to the final concentration). […] After the 5-minute incubation at 37° C., the reaction was stopped by the addition of 250 μL ice-cold washing mix to each well. […]
The samples were then be transferred to a filter plate and washed with 200 μL cold washing mix5-times to remove any free compounds or taurocholate probe substrate. The amount of taurocholate probe substrate inside the filtered vesicles were determined by liquid scintillation counting. […]
Take `CCN(C)S(=O)(=O)Nc1ccc(F)c(Oc2ccc3ncn([C@H]4COC5(CCC(N6CC7(CN(c8ccc(NC9CCC(=O)NC9=O)cc8F)C7)C6)CC5)C4)c(=O)c3c2)c1C#N` (stereo partly drawn) [Compound 30, 6-[2-cyano-3-[[ethyl(methyl)sulfamoyl]amino]-6-fluoro-phenoxy]-3-[(3R)-8-[6-[4-[(2,6-dioxo-3-piperidyl)amino]-2-fluoro-phenyl]-2,6-diazaspiro[3.3]heptan-2-yl]-1-oxaspiro[4.5]decan-3-yl]-4-oxo-quinazoline]: the BSEP Inhibition/IC50 came to 8.52 µM.

Take `Cn1nc(N2CCC(=O)NC2=O)c2cc(F)c(N3CC4(CC(N5CCC6(CC5)C[C@@H](n5cnc7ccc(Oc8c(F)ccc(NS(=O)(=O)N9CC%10(CCC%10)C9)c8C#N)cc7c5=O)CO6)C4)C3)cc21` [Compound 254, N-[2-cyano-3-[3-[(3R)-8-[2-[3-(2,4-dioxohexahydropyrimidin-1-yl)-5-fluoro-1-methyl-indazol-6-yl]-2-azaspiro[3.3]heptan-6-yl]-1-oxa-8-azaspiro[4.5]decan-3-yl]-4-oxo-quinazolin-6-yl]oxy-4-fluoro-phenyl]-2-azaspiro[3.3]heptane-2-sulfonamide]: the BSEP Inhibition/IC50 is 1.74 µM.

`CCN(C)S(=O)(=O)Nc1ccc(F)c(Oc2ccc3ncc([C@@H]4COC5(CCN(C6CCC(c7ccc(NC8CCC(=O)NC8=O)cc7F)CC6)CC5)C4)nc3c2)c1C#N` (single isomer, unassigned) [Compound 60]: the BSEP Inhibition/IC50 was determined as 7.88 µM.

For the molecule `CCN(C)S(=O)(=O)Nc1ccc(F)c(Oc2ccc3ncc([C@H]4COC5(CCN(C6CC7(C6)CN(c6cc8c(cc6F)c(N6CCC(=O)NC6=O)nn8C)C7)CC5)C4)nc3c2)c1C#N` [Compound 158, (3S)-3-[7-[2-cyano-3-[[ethyl(methyl)sulfamoyl]amino]-6-fluoro-phenoxy]quinoxalin-2-yl]-8-[2-[3-(2,4-dioxohexahydropyrimidin-1-yl)-5-fluoro-1-methyl-indazol-6-yl]-2-azaspiro[3.3]heptan-6-yl]-1-oxa-8-azaspiro[4.5]decane], the BSEP Inhibition/IC50 worked out at 7.53 µM.

In the case of `Cn1nc(N2CCC(=O)NC2=O)c2cc(F)c(N3CC4(CC(N5CCC6(CC5)CC(n5cnc7ccc(Oc8c(F)ccc(NS(=O)(=O)C9CCCC9)c8C#N)cc7c5=O)C6)C4)C3)cc21` [Compound 250, N-[2-cyano-3-[3-[7-[2-[3-(2,4-dioxohexahydropyrimidin-1-yl)-5-fluoro-1-methyl-indazol-6-yl]-2-azaspiro[3.3]heptan-6-yl]-7-azaspiro[3.5]nonan-2-yl]-4-oxo-quinazolin-6-yl]oxy-4-fluoro-phenyl]cyclopentanesulfonamide], the BSEP Inhibition/IC50 stood at 8.45 µM.

Take `CCN(C)S(=O)(=O)Nc1ccc(F)c(Oc2ccc3ncn([C@H]4COC5(CCN(C6CC(c7cc8c(cc7F)c(N7CCC(=O)NC7=O)nn8C)C6)CC5)C4)c(=O)c3c2)c1C#N` (single isomer, unassigned) [Compound 70]: the BSEP Inhibition/IC50 was determined as 2.08 µM.

Regarding `COC1CN(S(=O)(=O)Nc2ccc(F)c(Oc3ccc4ncn([C@H]5COC6(CCN(C7CC8(C7)CN(c7cc9c(cc7F)c(N7CCC(=O)NC7=O)nn9C)C8)CC6)C5)c(=O)c4c3)c2C#N)C1` [Compound 246, N-[2-cyano-3-[3-[(3R)-8-[2-[3-(2,4-dioxohexahydropyrimidin-1-yl)-5-fluoro-1-methyl-indazol-6-yl]-2-azaspiro[3.3]heptan-6-yl]-1-oxa-8-azaspiro[4.5]decan-3-yl]-4-oxo-quinazolin-6-yl]oxy-4-fluoro-phenyl]-3-methoxy-azetidine-1-sulfonamide], the BSEP Inhibition/IC50 came out at 8.79 µM.

Staying with this assay, now noted: human BSEP (HEK293) vesicles; taurocholate 0.2 μM; 4 mM Mg-ATP; 10 concentrations, 1 replicate; in nM.
In the case of `CCN(C)S(=O)(=O)Nc1ccc(F)c(Oc2ccc3ncn(C4CC5(CCN(C6CCC(c7cc8c(cc7F)c(N7CCC(=O)NC7=O)nn8C)CC6F)CC5)C4)c(=O)c3c2)c1C#N` (single isomer, unassigned) [Compound 83, 6-[2-cyano-3-[[ethyl(methyl)sulfamoyl]amino]-6-fluoro-phenoxy]-3-[7-[4-[3-(2,4-dioxohexahydropyrimidin-1-yl)-5-fluoro-1-methyl-indazol-6-yl]-2-fluoro-cyclohexyl]-7-azaspiro[3.5]nonan-2-yl]-4-oxo-quinazoline], the “BSEP Inhibition/IC50” value was found to be 14100.

As for `CCN(C)S(=O)(=O)Nc1ccc(F)c(Oc2ccc3ncc(C4CC5(CCN(C6CCC(c7cc8c(cc7F)c(N7CCC(=O)NC7=O)nn8C)CC6)CC5)C4)nc3c2)c1C#N` (single isomer, unassigned) [Compound 180, 7-[2-cyano-3-[[ethyl(methyl)sulfamoyl]amino]-6-fluoro-phenoxy]-2-[7-[4-[3-(2,4-dioxohexahydropyrimidin-1-yl)-5-fluoro-1-methyl-indazol-6-yl]cyclohexyl]-7-azaspiro[3.5]nonan-2-yl]quinoxaline], the “BSEP Inhibition/IC50” value is 12180.

With `Cn1nc(N2CCC(=O)NC2=O)c2cc(F)c(N3CC4(CC(N5CCC6(CC5)CC(n5cnc7ccc(Oc8c(F)ccc(NS(=O)(=O)C9CC9)c8C#N)cc7c5=O)C6)C4)C3)cc21` [Compound 260, N-[2-cyano-3-[3-[7-[2-[3-(2,4-dioxohexahydropyrimidin-1-yl)-5-fluoro-1-methyl-indazol-6-yl]-2-azaspiro[3.3]heptan-6-yl]-7-azaspiro[3.5]nonan-2-yl]-4-oxo-quinazolin-6-yl]oxy-4-fluoro-phenyl]cyclopropanesulfonamide], the “BSEP Inhibition/IC50” value is reported as 12720.

With `Cn1nc(N2CCC(=O)NC2=O)c2cc(F)c(N3CC4(CC(N5CCC6(CC5)CC(n5cnc7ccc(Oc8c(F)ccc(NS(=O)(=O)N9C[C@H]%10C[C@H]%10C9)c8C#N)cc7c5=O)C6)C4)C3)cc21` (stereo partly drawn) [Compound 277, (1R,5S)-N-[2-cyano-3-[3-[7-[2-[3-(2,4-dioxohexahydropyrimidin-1-yl)-5-fluoro-1-methyl-indazol-6-yl]-2-azaspiro[3.3]heptan-6-yl]-7-azaspiro[3.5]nonan-2-yl]-4-oxo-quinazolin-6-yl]oxy-4-fluoro-phenyl]-3-azabicyclo[3.1.0]hexane-3-sulfonamide], the “BSEP Inhibition/IC50” value was 11860.

With `CCN(C)S(=O)(=O)Nc1ccc(F)c(Oc2ccc3ncn(C4CC5(CCN(C6CC7(C6)CN(c6cc8c(cc6F)c(N6CCC(=O)NC6=O)nn8C)C7)CC5)C4)c(=O)c3c2)c1C#N` (centres unmarked) [Compound 141, 6-[2-cyano-3-[[ethyl(methyl)sulfamoyl]amino]-6-fluoro-phenoxy]-3-[7-[2-[3-(2,4-dioxohexahydropyrimidin-1-yl)-5-fluoro-1-methyl-indazol-6-yl]-2-azaspiro[3.3]heptan-6-yl]-7-azaspiro[3.5]nonan-2-yl]-4-oxo-quinazoline], the “BSEP Inhibition/IC50” value is >40000.

As to `CN(CCO)S(=O)(=O)Nc1ccc(F)c(Oc2ccc3ncn(C4CC5(CCN(C6CCC(c7cc8c(cc7F)c(N7CCC(=O)NC7=O)nn8C)CC6F)CC5)C4)c(=O)c3c2)c1C#N` (single isomer, unassigned) [Compound 145, 6-[2-cyano-6-fluoro-3-[[2-hydroxyethyl(methyl)sulfamoyl]amino]phenoxy]-3-[7-[4-[3-(2,4-dioxohexahydropyrimidin-1-yl)-5-fluoro-1-methyl-indazol-6-yl]-2-fluoro-cyclohexyl]-7-azaspiro[3.5]nonan-2-yl]-4-oxo-quinazoline], the “BSEP Inhibition/IC50” value is given as 21630.

In the case of `Cn1nc(N2CCC(=O)NC2=O)c2cc(F)c(N3CC4(CC(N5CCC6(CC5)CC(n5cnc7ccc(Oc8c(F)ccc(NS(=O)(=O)N9CC[C@@H](F)C9)c8C#N)cc7c5=O)C6)C4)C3)cc21` [Compound 261, (3R)-N-[2-cyano-3-[3-[7-[2-[3-(2,4-dioxohexahydropyrimidin-1-yl)-5-fluoro-1-methyl-indazol-6-yl]-2-azaspiro[3.3]heptan-6-yl]-7-azaspiro[3.5]nonan-2-yl]-4-oxo-quinazolin-6-yl]oxy-4-fluoro-phenyl]-3-fluoro-pyrrolidine-1-sulfonamide], the “BSEP Inhibition/IC50” value is recorded as >40000.
